Measured values: publication PMC8981457, “Cdyl Deficiency Brakes Neuronal Excitability and Nociception through Promoting Kcnb1 Transcription in Peripheral Sensory Neurons” (Advanced Science, 2022)
Read-outs that look alike come from different tables or passages of the source. Values belong to the molecule of their own block, whether it stands above or below them. *1 amine or outer side, *2 acyl side, *3 side chain or, on linkers, in order; H or OH if unused. Where a SMILES comes first, the peptide text is derived from it. [ ]: non-standard residue; d: D form. X1 = N6‑isopropyl‑N6‑((1-methyl-1H-imidazol-5-yl)methyl)Lys, CC(C)N(CCCC[C@H](N[*:1])C(=O)[*:2])Cc1cncn1C; X2 = CC(C)N(CCCC[C@H](N[*:1])C(=O)[*:2])Cc1cncn1C; Phe(F5) = N[C@@H](Cc1c(F)c(F)c(F)c(F)c1F)C(=O)O; NMeA = CN[C@@H](C)C(=O)O; Inp = O=C(O)C1CCNCC1

Experiments:
CDYL chromodomain = biological target: T1, CDYL chromodomain (Homo sapiens, UniProt Q9Y232); experiment: isothermal titration calorimetry; type: binding
T1 construct: chromodomain residues 1-78 of NP_004815, N-terminal GST tag (pGEX4T) removed by thrombin for ITC, E. coli Rosetta2 BL21(DE3)pLysS
T1 sequence (Q9Y232 1-78 isoform Q9Y232-2): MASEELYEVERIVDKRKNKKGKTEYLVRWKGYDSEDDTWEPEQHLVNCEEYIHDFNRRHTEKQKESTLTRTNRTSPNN

[1] = biological target: T2, chromodomain of MPP8 (residues 55-116 of NP_059990) (UniProt Q99549-1 55-116); experiment: not stated; selectivity of UNC6261 among chromodomains (Figure S7); method not given; conditions: both partners purified
T2 construct: M-phase phosphoprotein 8 (MPP8), chromodomain, residues 55-116 of NP_059990; source: E. coli Rosetta2 BL21(DE3)pLysS, purified (HisTrap FF, Superdex 75)
T2 sequence (looked up): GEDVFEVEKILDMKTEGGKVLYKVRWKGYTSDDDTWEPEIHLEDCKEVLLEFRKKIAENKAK

[2] = biological target: T3, chromodomain of CDYL2 (residues 1-75 of NP_689555) (UniProt Q8N8U2 1-75); experiment: AlphaScreen or HTRF; TR-FRET competition assay for CDYL2, dose-response; 20 mM tris pH 7.5, 150 mM NaCl, 0.05% Tween 20, 2 mM DTT; 1 h equilibration; tracer not named (ref. 30); conditions: both partners purified
T3 construct: chromodomain Y-like protein 2 (CDYL2), chromodomain, residues 1-75 of NP_689555; source: E. coli Rosetta2 BL21(DE3)pLysS, purified (HisTrap FF, Superdex 75)
T3 sequence (looked up): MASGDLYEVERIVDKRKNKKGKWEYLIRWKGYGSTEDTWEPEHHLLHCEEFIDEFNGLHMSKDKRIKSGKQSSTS

Kd (CDYL chromodomain; read-out: Kd): 139 ± 3.3 nM
Molecule: COC(=O)[C@H](CO)NC(=O)[C@H](CCCCN(Cc1cncn1C)C(C)C)NC(=O)[C@H](Cc1ccccc1)NC(=O)[C@H](C)NC(=O)[C@H](Cc1c(F)c(F)c(F)c(F)c1F)NC(=O)C1CCNCC1 [UNC6261, Methyl N ^6‐isopropyl‐N ^6‐((1‐methyl‐1H‐imidazol‐5‐yl)methyl)‐N ^2‐((S)‐3‐(perfluorophenyl)‐2‐(piperidine‐4‐carboxamido)propanoyl)‐L‐alanyl‐L‐phenylalanyl‐L‐lysyl‐L‐serinate] (H-[Inp][Phe(F5)]AF[X2]S-OMe)

Kd (CDYL chromodomain; read-out: no measurable binding): > 50000 nM
Molecule: COC(=O)[C@H](CO)NC(=O)[C@H](CCCCN(Cc1cncn1C)C(C)C)NC(=O)[C@H](Cc1ccccc1)NC(=O)[C@H](C)N(C)C(=O)[C@H](Cc1c(F)c(F)c(F)c(F)c1F)NC(=O)C1CCNCC1 [UNC7394, Methyl N ^6‐isopropyl‐N ^6‐((1‐methyl‐1H‐imidazol‐5‐yl)methyl)‐N ^2‐N‐methyl‐N‐((S)‐3‐(perfluorophenyl)‐2‐(piperidine‐4‐carboxamido)propanoyl)‐L‐alanyl‐L‐phenylalanyl‐L‐lysyl‐L‐serinate] (H-[Inp][Phe(F5)][NMeA]F[X2]S-OMe)

fold selectivity for CDYL over MPP8 [1]: 13 fold
IC50 [2]: 81 ± 16 nM
B1: UNC6261 (peptide)
peptide: {piperidine‑4‑carbonyl}-[Phe(F5)]AF[X1]S-OMe
notes: peptidomimetic pentapeptide; F1 stands for pentafluorophenylalanine, K4 for the dialkylated lysine mimetic; also called CDYL antagonist; source: synthetic, purified by reverse phase flash chromatography (TFA salt)
